Values joined by “and” are separate entries in the source; they are usually repeats but may differ in a detail not shown here. Equal entries are not always repeated.
How the values were obtained:
[1] = test system: renovascular hypertensive rats; test: Effect on reducing blood pressure of renovascular hypertensive rats by single oral administration; assay type: in vivo, Wistar rats; settings: for change in vivo at 0.5 mg/kg / inhibition in vivo at 0.5 mg/kg / change in vivo at 1 mg/kg / inhibition in vivo at 1 mg/kg / change in vivo at 2 mg/kg / inhibition in vivo at 2 mg/kg: Rattus norvegicus, single oral administration; for change in vivo at 0.5 mg/kg / change in vivo at 1 mg/kg / change in vivo at 2 mg/kg: RHR, read-out: Variations on heart rate; for inhibition in vivo at 0.5 mg/kg / inhibition in vivo at 1 mg/kg / inhibition in vivo at 2 mg/kg: two-kidney one-clip RHR, measured 1-10 h, read-out: Maximum blood pressure reduction; for blood pressure reduction effect compared with Azilsartan medoxomil: renal artery-ligated rat, result in words
normal rats = test: Effect on blood pressure of normal rats by single oral administration; assay type: in vivo, Wistar rats; settings: for inhibition in vivo at 0.5 mg/kg / inhibition in vivo at 1 mg/kg / inhibition in vivo at 2 mg/kg / change in vivo at 0.5 mg/kg / change in vivo at 1 mg/kg / change in vivo at 2 mg/kg: Rattus norvegicus, po, single, normal rats; for inhibition in vivo at 0.5 mg/kg / inhibition in vivo at 1 mg/kg / inhibition in vivo at 2 mg/kg: 8 h, read-out: blood pressure reduction at 8 h after the administration; for inhibition in vivo at 0.5 mg/kg / change in vivo at 0.5 mg/kg: 0.5 mg/kg p.o.; for inhibition in vivo at 1 mg/kg / change in vivo at 1 mg/kg: 1.0 mg/kg p.o.; for inhibition in vivo at 2 mg/kg / change in vivo at 2 mg/kg: 2.0 mg/kg p.o.; for change in vivo at 0.5 mg/kg / change in vivo at 1 mg/kg / change in vivo at 2 mg/kg: read-out: variations on heart rate

Compound	Maximum blood pressure reduction ([1]; rat, in vivo)	Variations on heart rate ([1]; rat, in vivo)	blood pressure reduction at 8 h after the administration (normal rats; rat, in vivo)	change in vivo at 0.5 mg/kg [1] [%]	inhibition in vivo at 0.5 mg/kg [1] [%]	change in vivo at 1 mg/kg [1] [%]	inhibition in vivo at 1 mg/kg [1] [%]	change in vivo at 2 mg/kg [1] [%]	inhibition in vivo at 2 mg/kg [1] [%]	inhibition in vivo at 0.5 mg/kg (normal rats) [%]	inhibition in vivo at 1 mg/kg (normal rats) [%]	inhibition in vivo at 2 mg/kg (normal rats) [%]	change in vivo at 0.5 mg/kg (normal rats) [%]	change in vivo at 1 mg/kg (normal rats) [%]	change in vivo at 2 mg/kg (normal rats) [%]	blood pressure reduction effect compared with Azilsartan medoxomil [1]
1-(6-methypyridazine-2-methoxy-carbonyloxy)ethyl-2-ethoxy-1-{[2′-(5-oxo-4,5-dihydro-1,2,4-oxadiazole)-3-yl)biphenyl-4-yl]methyl}-1H-benzimidazole-7-carboxylate [QR01029]	12 ± 2.1% and 15 ± 4.3% and 24 ± 5.2%	−4 ± 3% and −5 ± 2% and −8 ± 2%	4.2 ± 3.2% and 5.8 ± 2.2% and 3.4 ± 4.8%													
CCOc1nc2cccc(C(=O)OCOC(=O)OC(C)C)c2n1Cc1ccc(-c2ccccc2-c2noc(=O)[nH]2)cc1 [QR01002]				-5 ± 4	12 ± 2.4	-8 ± 3	15 ± 1.8	-6 ± 4	19 ± 4.2	5.6 ± 2.3	6.4 ± 2.1	6.4 ± 2.1	-4 ± 5	-5 ± 4	5	
CCOc1nc2cccc(C(=O)OCCOC(C)=O)c2n1Cc1ccc(-c2ccccc2-c2noc(=O)[nH]2)cc1 [QR01004]				0	7 ± 1.2	-5 ± 3	10 ± 2.3	-3 ± 1	12 ± 3.4	7.5 ± 1.4	6.7 ± 1.3	5.7 ± 2.6	-1 ± 2	-2 ± 1	3	
CCOc1nc2cccc(C(=O)OCc3nc(C)c(C)nc3C)c2n1Cc1ccc(-c2ccccc2-c2noc(=O)[nH]2)cc1 [QR01006]				-4 ± 2	14 ± 3.4	-5 ± 3	18 ± 3.6	-5 ± 3	24 ± 4.1	6.3 ± 2.8	7.2 ± 1.9	4.2 ± 2.1	-3 ± 4	2	-5 ± 6	
CCOc1nc2cccc(C(=O)OC3COC4C(O[N+](=O)[O-])COC34)c2n1Cc1ccc(-c2ccccc2-c2noc(=O)[nH]2)cc1 (centres unmarked) [QR01007]				-3 ± 1	10 ± 1.5	-8 ± 3	12 ± 2	-5 ± 2	18 ± 3.5	3.5 ± 3.4	2.5 ± 4.6	3.7 ± 4.3	-3 ± 2	-7 ± 2	5	
CCOc1nc2cccc(C(=O)OCCCCO[N+](=O)[O-])c2n1Cc1ccc(-c2ccccc2-c2noc(=O)[nH]2)cc1 [QR01008]				-8 ± 5	17 ± 3.1	-15 ± 3	28 ± 3.4	-18 ± 5	35 ± 3.4	4.5 ± 2.7	4.6 ± 2.5	2.1 ± 2.4	-6 ± 2	4	-2 ± 3	close to that of Azilsartan medoxomil
CCOc1nc2cccc(C(=O)Oc3ccc(OCc4c(-c5ccccc5)no[n+]4[O-])cc3)c2n1Cc1ccc(-c2ccccc2-c2noc(=O)[nH]2)cc1 [QR01010]				5	21 ± 4.7	-3 ± 1	26 ± 5.4	-5 ± 3	30 ± 3.6	2.1 ± 3.2	4.6 ± 4.7	5.7 ± 2.3	5	-5 ± 1	-4 ± 5	
CCOc1nc2cccc(C(=O)OCCCCOc3no[n+]([O-])c3S(=O)(=O)c3ccccc3)c2n1Cc1ccc(-c2ccccc2-c2noc(=O)[nH]2)cc1 [QR01011]				-5 ± 3	16 ± 4.3	-8 ± 6	28 ± 1.3	-6 ± 4	29 ± 4	2.7 ± 3.6	3.8 ± 2.1	3.7 ± 5	-3 ± 5	6	-5 ± 3	close to that of Azilsartan medoxomil
CCOc1nc2cccc(C(=O)ONC(=N)Nc3ccccc3)c2n1Cc1ccc(-c2ccccc2-c2noc(=O)[nH]2)cc1 [QR01012]				2	17 ± 3.7	-3 ± 4	22 ± 1	-5 ± 2	27 ± 2.8	1.9 ± 3.2	3.9 ± 2.1	4.6 ± 2.4	1	-3 ± 2	-3 ± 4	
CCOc1nc2cccc(C(=O)OCc3oc(=O)c(=O)oc3C)c2n1Cc1ccc(-c2ccccc2-c2noc(=O)[nH]2)cc1 [QR01014]				-2 ± 3	16 ± 3.5	-4 ± 2	21 ± 4.3	-4 ± 5	26 ± 2.1	2.9 ± 3.4	2.7 ± 3.6	4.6 ± 3.2	-4 ± 2	-3 ± 3	4	
CCOC(=O)C(=O)OC(C)C(=O)COC(=O)c1cccc2nc(OCC)n(Cc3ccc(-c4ccccc4-c4noc(=O)[nH]4)cc3)c12 (centres unmarked) [QR01015]				4	10 ± 1.5	2	12 ± 2	3	18 ± 3.5	3.7 ± 2.6	2.3 ± 1.8	1.8 ± 2.4	3	1	-3 ± 3	
CCOc1nc2cccc(C(=O)OCCO[N+](=O)[O-])c2n1Cc1ccc(-c2ccccc2-c2noc(=O)[nH]2)cc1 [QR01016]				1	11 ± 3.1	5	12 ± 9.2	4	15 ± 6.5	3.6 ± 2.8	4.2 ± 5.7	5.9 ± 3.2	1	5	3	
CCOc1nc2cccc(C(=O)OCc3c(C)no[n+]3[O-])c2n1Cc1ccc(-c2ccccc2-c2noc(=O)[nH]2)cc1 [QR01025]				4 ± 6	18 ± 3.4	-7 ± 5	22 ± 4.5	-7 ± 3	28 ± 3.2	3.3 ± 3.2	6.2 ± 3.8	3.7 ± 4.1	-2 ± 3	6	-3 ± 4	

— patent publication US9708306B2, “Benzimidazole derivatives and preparation process and pharmaceutical uses thereof” (WUHAN LL SCIENCE AND TECHNOLOGY DEVELOPMENT CO., LTD, priority 2015, dated 2017)
